{"source": "patent US8664271B2", "about": "“Stabilized leukotriene B4 (LTB4) agent pharmaceutical formulation” (LTB4 Sweden AB, priority 2004, dated 2014)", "assay_type_in_all_cases": "physicochemical", "key": {"[1]": {"assay": "Forced degradation (40° C.) of aqueous LTB4 Na salt solutions at different concentrations", "conditions": "aqueous isotonic pH 7.5, 0.01% EDTA", "procedure": "A solution of LTB4 (acid form) at the concentration of 12 mg/ml in ethanol/water, 95/5 (from Cascade Biochem, U.K.), was neutralized with an equivalent of sodium hydroxide to generate the Na salt. […] The ethanolic solution of LTB4 Na salt was evaporated (see Example 1) until an oily residue is obtained. The residue was then redissolved in a phosphate buffered sodium chloride solution (saline) (30 mM sodium phosphate, pH 7.5) containing 0.01% EDTA in order to obtain an isotonic solution of LTB4 Na salt at 25 mg/ml. LTB4 Na salt solution at 0.1 mg/ml was obtained by dilution of the 25 mg/ml solution with an isotonic 30 mM sodium phosphate buffered saline, pH 7.5 containing 0.01% EDTA. Aliquots of the solutions were dispensed in 2 ml type I glass vials as described in Example 1, and stored under air, in the dark, at 40±5° C. LTB4 and impurities were analyzed at the indicated times by reverse phase HPLC using UV detection at 270 nm."}, "[2]": {"assay": "Effect of pH (phosphate/glycine buffer) on stability of aqueous LTB4 Na salt solution at 1.75 mg/ml", "procedure": "Aqueous isotonic LTB4 Na salt solutions at the concentration of 1.75 mg/ml in phosphate/glycine buffered saline (3 mM sodium phosphate and 10 mM glycine buffer, pH 7.5, 8.5, 9.5 and 10.5) containing 0.01% EDTA were obtained by dilution of a 25 mg/ml solution of LTB4 Na salt (see Example 2) with the appropriate phosphate/glycine buffered saline containing 0.01% EDTA. Solutions were dispensed in 2 ml vials for storage under air, in the dark at 4±4° C. and 20±5° C. for 9 months prior to reverse phase HPLC analysis of LTB4 and impurities as described in Example 1."}, "[3]": {"assay": "Effect of pH (phosphate buffer) on stability of aqueous LTB4 Na salt solution at 17.5 μg/ml", "procedure": "Aqueous isotonic LTB4 Na salt solutions at the concentration of 17.5 μg/ml were obtained by dilution in phosphate buffered saline (3 mM sodium phosphate buffer, pH 7.5, 8.5, 9.5 and 10.5) containing 0.01% EDTA of an LTB4 Na salt solution at 25 mg/ml (Example 2). Solutions of LTB4 Na salt at 17.5 μg/ml of the 4 different pH were dispensed in 2 ml vials for storage under air, in the dark at 4±4° C. or 20±5° C. for 15 months prior to reverse phase HPLC analysis of LTB4 and impurities, as described in Example 1."}, "[4]": {"assay": "Effect of glycine buffer strength and pH on stability of aqueous LTB4 Na salt solutions", "conditions": "5 months at 40° C.; for level of impurities: 35 μg/ml", "procedure": "Aqueous isotonic LTB4 Na salt solutions at the concentration of 35 and 350 μg/ml in phosphate buffered saline ([…]) containing 0.01% EDTA and various concentrations of glycine (from 0.01 mM to 10 mM) were obtained by dilution of a 25 mg/ml solution of LTB4 Na salt (Example 2). Solutions of LTB4 Na salt at 35 and 350 μg/ml at the 4 different glycine concentrations were dispensed in 2 ml vials for storage under air in the dark at 40±5° C. for 5 months prior to reverse phase HPLC analysis of LTB4 and impurities as described in Example 1."}, "[5]": {"assay": "Stability of freeze-dried LTB4 Na salt solutions (mannitol, with or without HSA)", "conditions": "for level of impurities: freeze-dried solution 35 μg/ml, pH 7.5, 4% mannitol", "procedure": "Aqueous isotonic LTB4 Na salt solutions at the concentration of 35 μg/ml in phosphate buffered saline (3 mM sodium phosphate buffer, pH 7.5 or 9.5) containing 0.01% EDTA were obtained as described in Example 5. Mannitol was added to all solutions to the final concentration of 4% in order to generate a solid residue (mannitol bread) containing LTB4 Na salt and all components of the excipient upon freeze-drying. Fatty acid free (delipidated) human serum albumine (HSA, Sigma Chemicals, St-Louis, Mo.) was added to some of the solutions to the final concentration of 1 mg/ml prior to final pH adjustment (to 7.5 or 9.5). Solutions were dispensed in 2 ml vials, frozen at −20° C. and freeze-dried. The vials containing the freeze-dried solutions (mannitol breads) were then sealed as described in Example 1 (but under air instead of argon), and stored in the dark at 40±5° C. After 1.5 or 4.5 months, vials were opened and the mannitol breads (containing LTB4) were dissolved using 1 ml of water to regenerate the original LTB4 Na salt solutions at 35 μg/ml. LTB4 and impurities were then analyzed by reverse phase HPLC as described in Example 1."}, "[6]": {"assay": "Forced degradation of aqueous LTB4 sodium salt solutions at increasing sodium hydroxide concentrations", "conditions": "for impurity level: five weeks at 40° C.; for pH after five weeks of storage / final pH (after five weeks): 40° C.", "procedure": "An ethanolic solution of LTB4 (acid form) obtained from Cascade Biochem (UK) was neutralized by the addition of 1 equivalent of sodium hydroxide to generate LTB4 sodium salt. Aliquots of the ethanolic solution of the sodium salt of LTB4 were dispensed into 2-ml vials (to obtain 2 mg of LTB4 per vial) and the solvent was evaporated to dryness under a stream of nitrogen. The residues in vials were dissolved with 0.9% sodium chloride (NaCl) (vial 1), 0.9% NaCl in 0.1 mN NaOH (vial 2), 0.9% NaCl in 1 mN NaOH (vial 3), 0.9% NaCl in 10 mN NaOH (vial 4), 0.3% NaCl in 0.1N NaOH (vial 5) and in 1N NaOH (vial 6). Aliquots of the solutions were taken for immediate analysis (to) and the remaining solutions of LTB4 sodium salt at 2 mg/ml were stored under air, in the dark at 40±5° C. for five weeks, prior to reverse phase HPLC analysis of LTB4 and impurities as described in example 1."}}}
{"smiles": "CCCCC/C=C\\C[C@@H](O)/C=C/C=C/C=C\\[C@@H](O)CCCC(=O)[O-].[Na+]", "note": "[LTB4 Na salt]", "values": [{"measurement": "stability of 25 mg/ml solution compared with 0.1 mg/ml solution", "setting": "[1]", "value": "much less stable"}, {"measurement": "effect of increasing pH on stability", "setting": "[2]; 1.75 mg/ml, phosphate/glycine buffered saline pH 7.5 to 10.5, 0.01% EDTA, 9 months at 4° C. and 20° C.", "value": "strikingly increases the stability"}, {"measurement": "effect of increasing pH on solution stability", "setting": "[2]; forced degradation, storage at 40° C., data not shown", "value": "dramatic improvement"}, {"measurement": "degradation of LTB4", "setting": "[3]; pH 7.5 to 10.5, 15 months of storage at 4° C.", "value": "very little degradation"}, {"measurement": "effect of increasing pH on stability", "setting": "[3]; phosphate buffered saline pH 7.5 to 10.5, 0.01% EDTA, 15 months, more evident at 20° C.", "value": "strikingly increases the stability"}, {"measurement": "level of impurities", "setting": "[4]; pH 7.5, 10 mM glycine, data not shown", "value": 20, "unit": "%"}, {"measurement": "level of impurities", "setting": "[4]; pH 9.5, 10 mM glycine", "value": 6.5, "unit": "%"}, {"measurement": "impact of glycine buffer concentration on stability", "setting": "[4]; glycine 0.01 mM to 10 mM, pH 9.5, 35 μg/ml", "value": "little impact"}, {"measurement": "level of impurities", "setting": "[5]; 1.5 months at 40° C.", "value": 22.7, "unit": "%"}, {"measurement": "level of impurities", "setting": "[5]; 4.5 months at 40° C.", "value": 51.3, "unit": "%"}, {"measurement": "level of impurities", "setting": "[5]; redissolved immediately (time 0)", "value": 2.9, "unit": "%"}, {"measurement": "effect of elevation of pH from 7.5 to 9.5 prior to freeze-drying", "setting": "[5]; freeze-dried, 1.5 months (with HSA) or 4.5 months at 40° C.", "value": "striking decrease in the level of impurities"}, {"measurement": "decrease in the level of impurities by addition of HSA", "setting": "[5]; freeze-dried, pH 7.5, HSA 1 mg/ml, 1.5 months of storage at 40° C.", "value": "~50", "unit": "%"}, {"measurement": "impurity level", "setting": "[6]; vial 1: 2 mg/ml in 0.9% NaCl", "value": 100, "unit": "%"}, {"measurement": "pH after five weeks of storage", "setting": "[6]; vial 1: 0.9% NaCl", "value": "< 5"}, {"measurement": "impurity level", "setting": "[6]; vial 2: 2 mg/ml in 0.9% NaCl in 0.1 mN NaOH", "value": 100, "unit": "%"}, {"measurement": "pH after five weeks of storage", "setting": "[6]; vial 2: 0.9% NaCl in 0.1 mN NaOH", "value": "< 5"}, {"measurement": "impurity level", "setting": "[6]; vial 3: 2 mg/ml in 0.9% NaCl in 1 mN NaOH", "value": "5.34 % of AUC 270 nm"}, {"measurement": "final pH (after five weeks)", "setting": "[6]; vial 3: 0.9% NaCl in 1 mN NaOH", "value": 8.02}, {"measurement": "impurity level", "setting": "[6]; vial 4: 2 mg/ml in 0.9% NaCl in 10 mN NaOH", "value": "3.46 % of AUC 270 nm"}, {"measurement": "final pH (after five weeks)", "setting": "[6]; vial 4: 0.9% NaCl in 10 mN NaOH", "value": 9.83}, {"measurement": "impurity level", "setting": "[6]; vial 5: 2 mg/ml in 0.3% NaCl in 0.1N NaOH", "value": "4.38 % of AUC 270 nm"}, {"measurement": "final pH (after five weeks)", "setting": "[6]; vial 5: 0.3% NaCl in 0.1N NaOH", "value": 12.50}, {"measurement": "impurity level", "setting": "[6]; vial 6: 2 mg/ml in 1N NaOH", "value": "5.77 % of AUC 270 nm"}, {"measurement": "final pH (after five weeks)", "setting": "[6]; vial 6: 1N NaOH", "value": 13.03}]}
